Experimental findings from ChEMBL document CHEMBL5042528, “Optimization of 2-Amino-4,6-diarylpyrimidine-5-carbonitriles as Potent and Selective A1 Antagonists” (J Med Chem, 2022) are described below.

Structures are written as SMILES.

One series is described as follows: in vitro. The settings on record: human, liver microsomes. Background: Microsomes from liver hold many membrane-bound enzymes, among them those of drug oxidation.
Series [1] addresses T1, Adenosine receptor A2a (Homo sapiens, UniProt P29274).
Series [2] concerns the target T2, Adenosine receptor A1 (Homo sapiens, UniProt P30542).
T2 sequence (P30542 whole entry): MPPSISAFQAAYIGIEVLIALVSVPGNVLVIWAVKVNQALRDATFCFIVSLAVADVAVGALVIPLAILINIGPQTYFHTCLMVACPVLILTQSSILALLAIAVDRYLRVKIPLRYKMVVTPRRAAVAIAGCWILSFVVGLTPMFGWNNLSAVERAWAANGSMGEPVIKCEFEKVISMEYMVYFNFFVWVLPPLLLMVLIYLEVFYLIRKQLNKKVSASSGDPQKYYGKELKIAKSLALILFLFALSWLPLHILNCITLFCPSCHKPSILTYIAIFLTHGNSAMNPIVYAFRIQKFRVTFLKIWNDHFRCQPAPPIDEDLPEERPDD

Series [3] has as its target T2, Adenosine receptor A1. Briefly: Displacement of [3H]DPCPX from A1 adenosine receptor (unknown origin) expressed in CHO cell membrane incubated for 60 mins at room temperature by NXT microplate scintillation counter analysis. The class given is cell membranes. (In a radioligand displacement assay an active substance lowers the binding of a labelled ligand.)
For series [4], the target named is T1, Adenosine receptor A2a. This is another data set of the same source.

T1 sequence (P29274 whole entry): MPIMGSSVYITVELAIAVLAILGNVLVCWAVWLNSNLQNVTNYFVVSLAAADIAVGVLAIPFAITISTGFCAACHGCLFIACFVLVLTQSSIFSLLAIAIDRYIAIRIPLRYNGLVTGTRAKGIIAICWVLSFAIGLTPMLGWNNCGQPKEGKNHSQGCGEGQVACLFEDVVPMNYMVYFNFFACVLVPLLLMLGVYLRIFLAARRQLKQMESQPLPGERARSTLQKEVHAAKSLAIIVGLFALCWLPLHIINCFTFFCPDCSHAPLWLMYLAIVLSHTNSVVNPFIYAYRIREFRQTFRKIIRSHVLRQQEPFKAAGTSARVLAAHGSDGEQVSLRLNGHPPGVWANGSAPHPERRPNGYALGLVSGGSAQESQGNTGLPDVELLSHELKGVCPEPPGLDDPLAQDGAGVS
Description for in vitro: Stability of the compound in human liver microsome assessed as compound remaining measured after 60 mins by UPLC-MS/MS analysis

As usually defined, the amount remaining is the share of the starting amount still present when the sample was taken. `C[C@]12CC[C@H]3[C@@H](CCC4=CC(=O)CC[C@@]43C)[C@@H]1CC[C@@H]2O` [TESTOSTERONE] had a share remaining at 1 h in “in vitro” of 3.7%.

A word on the Ki: it is a measure of affinity in units of concentration, obtained from inhibition or displacement. As to `N#Cc1c(-c2ccccc2)nc(Nc2ccccc2)nc1-c1cccc(O)c1`, the values for the Ki on Adenosine receptor A2a [1] and on Adenosine receptor A1 [2] were 71.2 nM and 18.3 nM, respectively.

As to `Nc1nc(-c2ccccc2)c2c(n1)-c1ccccc1C2=O`, the Ki on Adenosine receptor A1 [3] was 0.1 nM.

`N#Cc1c(-c2ccccc2)nc(NC(=O)C2CCCC2)nc1-c1ccc2c(c1)OCO2`: the Ki at Adenosine receptor A2a [4] is 159 nM.
